# Earlier results as cited in patent publication US20130096316A1, “Novel Method for Preparation of Bisnorcymerine and Salts Thereof” (QR PHARMA, INC., priority 2011, published 2013).
# Target: human BChE (Homo sapiens, UniProt P06276)
# Settings: ratio of the AChE IC50 to the BChE IC50; cited from Yu et al., 1999
# Chain of human BChE (P06276 29-602): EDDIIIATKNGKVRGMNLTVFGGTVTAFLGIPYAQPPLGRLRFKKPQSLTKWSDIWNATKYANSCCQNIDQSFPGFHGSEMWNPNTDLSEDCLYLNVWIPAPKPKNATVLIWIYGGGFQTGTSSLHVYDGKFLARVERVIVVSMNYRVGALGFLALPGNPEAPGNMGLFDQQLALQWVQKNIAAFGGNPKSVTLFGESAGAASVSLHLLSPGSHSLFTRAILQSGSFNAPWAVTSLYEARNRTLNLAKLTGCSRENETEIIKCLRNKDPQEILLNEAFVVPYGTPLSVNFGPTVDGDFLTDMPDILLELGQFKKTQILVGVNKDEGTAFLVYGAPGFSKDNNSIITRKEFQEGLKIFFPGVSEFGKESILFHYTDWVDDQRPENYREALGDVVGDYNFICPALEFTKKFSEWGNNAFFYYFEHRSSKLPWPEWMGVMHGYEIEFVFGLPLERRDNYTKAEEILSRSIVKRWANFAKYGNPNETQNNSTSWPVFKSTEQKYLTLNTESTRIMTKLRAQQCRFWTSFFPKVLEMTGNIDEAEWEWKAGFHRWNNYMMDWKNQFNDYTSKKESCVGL
structure (smiles),measurement,value
"CC(C)c1ccc(NC(=O)Oc2ccc3c(c2)[C@]2(C)CCNC2N3)cc1 (stereo partly drawn) [Compound 1, (3aS)-3a-methyl-1,2,3,3a,8,8a-hexahydropyrrolo[2,3-b]indol-5-yl (4-isopropylphenyl)carbamate]",selectivity for inhibition of BChE as compared to AChE,110 fold
